From PubChem BioAssay (NCI)
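Each compound was tested at five concentrations against cells in 96-well plates for 48 hours. TGI denotes the concentration required for complete inhibition of growth.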

Legend:
Assay in all cases: NCI anticancer screen, dose series, 48 h
786-0 renal = system: 786-0 renal
A498 renal = system: A498 renal
A549 NSCLC = system: A549 NSCLC
ACHN renal = system: ACHN renal
CCRF-CEM leukemia = system: CCRF-CEM leukemia
COLO 205 colon = system: COLO 205 colon
DLD-1 colon = system: DLD-1 colon
DMS 114 small cell lung = system: DMS 114 small cell lung
DMS 273 small cell lung = system: DMS 273 small cell lung
EKVX NSCLC = system: EKVX NSCLC
HCC-2998 colon = system: HCC-2998 colon
HCT-116 colon = system: HCT-116 colon
HCT-15 colon = system: HCT-15 colon
HL-60(TB) leukemia = system: HL-60(TB) leukemia
HOP-18 NSCLC = system: HOP-18 NSCLC
HOP-62 NSCLC = system: HOP-62 NSCLC
HOP-92 NSCLC = system: HOP-92 NSCLC
HT29 colon = system: HT29 colon
IGROV1 ovarian = system: IGROV1 ovarian
K-562 leukemia = system: K-562 leukemia
KM12 colon = system: KM12 colon
LOX IMVI melanoma = system: LOX IMVI melanoma
LXFL 529 NSCLC = system: LXFL 529 NSCLC
M14 melanoma = system: M14 melanoma
M19-MEL melanoma = system: M19-MEL melanoma
MALME-3M melanoma = system: MALME-3M melanoma
MOLT-4 leukemia = system: MOLT-4 leukemia
NCI-H226 lung = system: NCI-H226 lung
NCI-H23 lung = system: NCI-H23 lung
NCI-H460 lung = system: NCI-H460 lung
NCI-H522 lung = system: NCI-H522 lung
OVCAR-3 ovarian = system: OVCAR-3 ovarian
OVCAR-4 ovarian = system: OVCAR-4 ovarian
OVCAR-5 ovarian = system: OVCAR-5 ovarian
OVCAR-8 ovarian = system: OVCAR-8 ovarian
RPMI-8226 leukemia = system: RPMI-8226 leukemia
RXF 393 renal = system: RXF 393 renal
RXF-631 renal = system: RXF-631 renal
SF-268 CNS = system: SF-268 CNS
SF-295 CNS = system: SF-295 CNS
SF-539 CNS = system: SF-539 CNS
SK-MEL-2 melanoma = system: SK-MEL-2 melanoma
SK-MEL-28 melanoma = system: SK-MEL-28 melanoma
SK-MEL-5 melanoma = system: SK-MEL-5 melanoma
SK-OV-3 ovarian = system: SK-OV-3 ovarian
SN12C renal = system: SN12C renal
SNB-19 CNS = system: SNB-19 CNS
SNB-75 CNS = system: SNB-75 CNS
SNB-78 CNS = system: SNB-78 CNS
SR leukemia = system: SR leukemia
SW-620 colon = system: SW-620 colon
TK-10 renal = system: TK-10 renal
U251 CNS = system: U251 CNS
UACC-257 melanoma = system: UACC-257 melanoma
UACC-62 melanoma = system: UACC-62 melanoma
UO-31 renal = system: UO-31 renal
CAKI-1 renal = system: CAKI-1 renal

## CC(C)(CN1CCCCC1)C(=O)/C=C/c1ccc(Cl)c(Cl)c1
786-0 renal
  TGI: 2.69 µM
A498 renal
  TGI: 3.09 µM
A549 NSCLC
  TGI: 4.07 µM
ACHN renal
  TGI: 2.88 µM
CCRF-CEM leukemia
  TGI: 3.27 µM
COLO 205 colon
  TGI: 2.85 µM
DLD-1 colon
  TGI: 3.5 µM
DMS 114 small cell lung
  TGI: 3.05 µM
DMS 273 small cell lung
  TGI: 3.2 µM
EKVX NSCLC
  TGI: 3.29 µM
HCC-2998 colon
  TGI: 3.21 µM
HCT-116 colon
  TGI: 3.08 µM
HCT-15 colon
  TGI: 2.73 µM
HL-60(TB) leukemia
  TGI: 3.4 µM
HOP-18 NSCLC
  TGI: 2.85 µM
HOP-62 NSCLC
  TGI: 3.8 µM
HOP-92 NSCLC
  TGI: 2.34 µM
HT29 colon
  TGI: 3.06 µM
IGROV1 ovarian
  TGI: 4.15 µM
K-562 leukemia
  TGI: 4.13 µM
KM12 colon
  TGI: 3.25 µM
LOX IMVI melanoma
  TGI: 2.76 µM
LXFL 529 NSCLC
  TGI: 2.78 µM
M14 melanoma
  TGI: 3.07 µM
M19-MEL melanoma
  TGI: 3.21 µM
MALME-3M melanoma
  TGI: 3.31 µM
MOLT-4 leukemia
  TGI: 4.57 µM
NCI-H226 lung
  TGI: 3.15 µM
NCI-H23 lung
  TGI: 3.26 µM
NCI-H460 lung
  TGI: 3.46 µM
NCI-H522 lung
  TGI: 2.67 µM
OVCAR-3 ovarian
  TGI: 2.94 µM
OVCAR-4 ovarian
  TGI: 2.87 µM
OVCAR-5 ovarian
  TGI: 3.08 µM
OVCAR-8 ovarian
  TGI: > 100 µM
RPMI-8226 leukemia
  TGI: 5.34 µM
RXF 393 renal
  TGI: 2.42 µM
RXF-631 renal
  TGI: 3.72 µM
SF-268 CNS
  TGI: 3.74 µM
SF-295 CNS
  TGI: 5.86 µM
SF-539 CNS
  TGI: 4.6 µM
SK-MEL-2 melanoma
  TGI: 3.18 µM
SK-MEL-28 melanoma
  TGI: 3.37 µM
SK-MEL-5 melanoma
  TGI: 3.5 µM
SK-OV-3 ovarian
  TGI: 7.51 µM
SN12C renal
  TGI: 2.92 µM
SNB-19 CNS
  TGI: 12.2 µM
SNB-75 CNS
  TGI: 3.13 µM
SNB-78 CNS
  TGI: 4.5 µM
SR leukemia
  TGI: 4.69 µM
SW-620 colon
  TGI: 2.94 µM
TK-10 renal
  TGI: 2.8 µM
U251 CNS
  TGI: 2.7 µM
UACC-257 melanoma
  TGI: 2.41 µM
UACC-62 melanoma
  TGI: 4.06 µM
UO-31 renal
  TGI: 2.99 µM

## COc1ccc(C(O)c2cc(OC)c(OC)c(OC)c2)cc1 (configuration not stated)
786-0 renal
  TGI: > 100 µM
A498 renal
  TGI: > 100 µM
A549 NSCLC
  TGI: > 100 µM
ACHN renal
  TGI: > 100 µM
CAKI-1 renal
  TGI: > 100 µM
CCRF-CEM leukemia
  TGI: > 100 µM
COLO 205 colon
  TGI: 26.4 µM
DLD-1 colon
  TGI: > 100 µM
DMS 114 small cell lung
  TGI: 37.5 µM
DMS 273 small cell lung
  TGI: > 100 µM
EKVX NSCLC
  TGI: > 100 µM
HCT-116 colon
  TGI: > 100 µM
HCT-15 colon
  TGI: > 100 µM
HL-60(TB) leukemia
  TGI: 39.5 µM
HOP-18 NSCLC
  TGI: > 100 µM
HOP-62 NSCLC
  TGI: > 100 µM
HOP-92 NSCLC
  TGI: > 100 µM
HT29 colon
  TGI: > 100 µM
IGROV1 ovarian
  TGI: > 100 µM
K-562 leukemia
  TGI: > 100 µM
KM12 colon
  TGI: > 100 µM
LOX IMVI melanoma
  TGI: > 100 µM
LXFL 529 NSCLC
  TGI: > 100 µM
M14 melanoma
  TGI: 83.3 µM
M19-MEL melanoma
  TGI: > 100 µM
MALME-3M melanoma
  TGI: > 100 µM
MOLT-4 leukemia
  TGI: > 100 µM
NCI-H226 lung
  TGI: > 100 µM
NCI-H460 lung
  TGI: > 100 µM
NCI-H522 lung
  TGI: 35.5 µM
OVCAR-3 ovarian
  TGI: 47 µM
OVCAR-4 ovarian
  TGI: > 100 µM
OVCAR-5 ovarian
  TGI: > 100 µM
OVCAR-8 ovarian
  TGI: > 100 µM
RPMI-8226 leukemia
  TGI: > 100 µM
RXF 393 renal
  TGI: 30.6 µM
RXF-631 renal
  TGI: > 100 µM
SF-268 CNS
  TGI: > 100 µM
SF-295 CNS
  TGI: 29.2 µM
SF-539 CNS
  TGI: 63.7 µM
SK-MEL-28 melanoma
  TGI: > 100 µM
SK-MEL-5 melanoma
  TGI: 42.2 µM
SN12C renal
  TGI: > 100 µM
SNB-19 CNS
  TGI: > 100 µM
SNB-78 CNS
  TGI: > 100 µM
SW-620 colon
  TGI: > 100 µM
TK-10 renal
  TGI: > 100 µM
U251 CNS
  TGI: > 100 µM
UACC-257 melanoma
  TGI: > 100 µM
UACC-62 melanoma
  TGI: > 100 µM
UO-31 renal
  TGI: > 100 µM
